One series in a line: Solubility to chloroform. The format is physicochemical. How it is done:
In this embodiment, an effect of introducing a substituent other than hydrogen into R^5 and R^6 of the compounds represented by the general formulas [Chem. 5] to [Chem. 8] will be described. […] In contrast, in the case where R^5 and R^6 are trimethylsilyl groups, the solubility to chloroform at 25° C. is 15.4 wt. %. Thus, it is possible to considerably improve the solubility by introducing the substituent into R^5 and R^6.

Series [1] in a line: Cyclic voltammetry, oxidation potential. The format is physicochemical. Particulars: acetonitrile, tetrabutyl ammonium perchlorate, platinum electrodes. How it is done:
The cyclic voltammetry measurements were conducted by using acetonitrile as a solvent and tetrabutyl ammonium perchlorate as a supporting electrolyte. Each of a working electrode and a counter electrode was made from platinum. […] […] Therefore, in the compounds represented by the general formulas [Chem. 5] to [Chem. 8], it is preferable that the cyclic structures are formed by R^1 and R^2 and by R^3 and R^4, and this is supported by the result of this example.

As for `c1cc(-c2scc3c2OCCO3)ccc1-c1scc2c1OCCO2` [Chem. 9, 1,4-di-(3,4-ethylenedioxy-2-thienyl)benzene], in the series “Solubility to chloroform”, the solubility to chloroform result was “less than 1 wt. %”. The oxidation potential in series [1] is 1.20 V.

`CCCCCCOc1csc(-c2ccc(-c3scc(OCCCCCC)c3OCCCCCC)cc2)c1OCCCCCC` [Chem. 11, 1,4-bis(3,4-dihexyloxy-2-thienyl)benzene] registered an oxidation potential in series [1] of 1.68 V.
